Experimental data from PMC11167047 (Cell Death Discovery, 2024).

Columns and labels:
Assay in all cases: kinome screen (33PanQinase)
Type in all cases: biochemical
ABL1 = biological target: T1, ABL1 (Homo sapiens, UniProt P00519)
T1 construct: purchased Reaction Biology Europe GmbH (formerly ProQinase)
Experimental: (§1) The Kinome Screening was performed by Reaction Biology Europe GmbH (http://reactionbiology.com; Freiburg i. Br., Germany).

CDK6/CycD1 = biological target: T2, CDK6/CycD1 (Homo sapiens, UniProt Q00534)
T2 construct: purchased Reaction Biology Europe GmbH (formerly ProQinase)
Experimental: as §1

EPHB2 = biological target: T3, EPHB2 (Homo sapiens, UniProt P29323)
T3 construct: purchased Reaction Biology Europe GmbH (formerly ProQinase)
T3 sequence (P29323 19-1055): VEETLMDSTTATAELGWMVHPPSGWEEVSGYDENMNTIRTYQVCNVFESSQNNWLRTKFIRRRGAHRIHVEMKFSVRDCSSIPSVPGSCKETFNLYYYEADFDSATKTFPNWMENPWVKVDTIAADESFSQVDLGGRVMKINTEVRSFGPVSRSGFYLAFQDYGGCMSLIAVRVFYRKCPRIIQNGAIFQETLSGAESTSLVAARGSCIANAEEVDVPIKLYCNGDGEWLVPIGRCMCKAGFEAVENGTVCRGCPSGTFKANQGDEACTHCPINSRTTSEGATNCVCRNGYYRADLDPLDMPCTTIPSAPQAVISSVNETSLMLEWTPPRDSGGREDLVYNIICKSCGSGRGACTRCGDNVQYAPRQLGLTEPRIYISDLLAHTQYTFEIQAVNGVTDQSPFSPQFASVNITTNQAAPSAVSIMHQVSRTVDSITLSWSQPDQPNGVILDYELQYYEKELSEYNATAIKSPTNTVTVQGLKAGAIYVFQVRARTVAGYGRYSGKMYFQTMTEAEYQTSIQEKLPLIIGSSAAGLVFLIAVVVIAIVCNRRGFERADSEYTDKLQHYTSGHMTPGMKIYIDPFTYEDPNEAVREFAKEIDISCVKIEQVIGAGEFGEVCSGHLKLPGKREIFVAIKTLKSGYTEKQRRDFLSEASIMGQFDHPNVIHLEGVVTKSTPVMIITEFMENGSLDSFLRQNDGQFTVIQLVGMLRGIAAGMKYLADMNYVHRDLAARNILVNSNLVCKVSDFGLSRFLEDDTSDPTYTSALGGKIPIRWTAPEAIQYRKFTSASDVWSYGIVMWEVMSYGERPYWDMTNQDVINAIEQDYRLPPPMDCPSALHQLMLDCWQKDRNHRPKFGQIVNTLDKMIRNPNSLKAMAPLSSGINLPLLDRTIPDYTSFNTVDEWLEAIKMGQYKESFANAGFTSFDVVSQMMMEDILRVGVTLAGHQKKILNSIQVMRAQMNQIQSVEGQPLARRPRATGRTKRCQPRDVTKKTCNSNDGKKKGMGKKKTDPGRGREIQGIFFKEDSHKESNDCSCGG
Experimental: as §1

HIPK4 = biological target: T4, HIPK4 (Homo sapiens, UniProt Q8NE63)
T4 construct: purchased Reaction Biology Europe GmbH (formerly ProQinase)
T4 sequence (Q8NE63 1-616): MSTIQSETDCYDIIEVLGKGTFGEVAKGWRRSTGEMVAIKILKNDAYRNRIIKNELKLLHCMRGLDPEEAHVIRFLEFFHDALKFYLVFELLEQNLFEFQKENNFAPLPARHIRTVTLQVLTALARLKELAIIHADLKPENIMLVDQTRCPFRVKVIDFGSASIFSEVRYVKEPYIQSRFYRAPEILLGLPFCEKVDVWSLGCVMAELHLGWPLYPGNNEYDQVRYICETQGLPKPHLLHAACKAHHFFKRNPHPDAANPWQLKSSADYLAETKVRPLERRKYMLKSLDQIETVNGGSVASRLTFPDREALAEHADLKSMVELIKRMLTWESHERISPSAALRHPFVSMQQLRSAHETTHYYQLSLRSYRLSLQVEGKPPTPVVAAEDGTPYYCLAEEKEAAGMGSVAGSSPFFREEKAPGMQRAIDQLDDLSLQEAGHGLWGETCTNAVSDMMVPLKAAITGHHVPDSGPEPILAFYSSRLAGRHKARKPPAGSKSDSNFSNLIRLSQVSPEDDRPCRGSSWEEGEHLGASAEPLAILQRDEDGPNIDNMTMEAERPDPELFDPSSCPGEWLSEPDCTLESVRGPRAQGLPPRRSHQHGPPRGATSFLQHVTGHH
Experimental: as §1

TYRO3 = biological target: T5, TYRO3 (Homo sapiens, UniProt Q06418)
T5 construct: purchased Reaction Biology Europe GmbH (formerly ProQinase)
T5 sequence (Q06418 41-890): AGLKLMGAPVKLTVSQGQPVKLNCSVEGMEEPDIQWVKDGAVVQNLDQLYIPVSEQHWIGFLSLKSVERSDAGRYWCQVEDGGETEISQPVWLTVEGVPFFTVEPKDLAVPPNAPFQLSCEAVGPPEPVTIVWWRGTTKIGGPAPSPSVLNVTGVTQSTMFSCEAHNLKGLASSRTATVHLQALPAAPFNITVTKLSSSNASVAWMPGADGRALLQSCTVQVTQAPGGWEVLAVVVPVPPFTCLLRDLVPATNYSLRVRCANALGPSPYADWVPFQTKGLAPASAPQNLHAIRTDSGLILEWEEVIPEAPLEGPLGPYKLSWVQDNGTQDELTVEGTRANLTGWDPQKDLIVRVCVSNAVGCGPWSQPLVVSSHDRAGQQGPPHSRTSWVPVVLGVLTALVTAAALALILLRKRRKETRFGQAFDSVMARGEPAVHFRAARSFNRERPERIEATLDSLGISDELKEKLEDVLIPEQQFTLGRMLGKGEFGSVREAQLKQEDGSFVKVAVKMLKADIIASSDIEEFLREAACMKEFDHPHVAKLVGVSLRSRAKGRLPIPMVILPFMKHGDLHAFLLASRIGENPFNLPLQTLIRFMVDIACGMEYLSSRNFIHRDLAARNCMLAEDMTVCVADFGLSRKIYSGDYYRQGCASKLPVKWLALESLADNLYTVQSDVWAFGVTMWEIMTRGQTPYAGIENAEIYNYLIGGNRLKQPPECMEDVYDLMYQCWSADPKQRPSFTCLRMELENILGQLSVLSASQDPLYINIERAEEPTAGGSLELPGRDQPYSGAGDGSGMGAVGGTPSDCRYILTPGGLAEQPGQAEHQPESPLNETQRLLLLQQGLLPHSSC
Experimental: as §1

T2 sequence (Q00534 whole entry): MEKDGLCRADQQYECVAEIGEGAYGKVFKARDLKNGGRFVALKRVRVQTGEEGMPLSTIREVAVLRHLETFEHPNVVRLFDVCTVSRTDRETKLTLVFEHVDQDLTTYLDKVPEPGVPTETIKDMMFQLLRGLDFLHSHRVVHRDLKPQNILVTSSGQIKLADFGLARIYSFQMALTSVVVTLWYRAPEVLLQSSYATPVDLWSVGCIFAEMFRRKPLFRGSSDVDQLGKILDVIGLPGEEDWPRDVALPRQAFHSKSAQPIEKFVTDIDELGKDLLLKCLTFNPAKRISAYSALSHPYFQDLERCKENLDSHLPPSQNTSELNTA
T2 sequence (P24385 whole entry partner): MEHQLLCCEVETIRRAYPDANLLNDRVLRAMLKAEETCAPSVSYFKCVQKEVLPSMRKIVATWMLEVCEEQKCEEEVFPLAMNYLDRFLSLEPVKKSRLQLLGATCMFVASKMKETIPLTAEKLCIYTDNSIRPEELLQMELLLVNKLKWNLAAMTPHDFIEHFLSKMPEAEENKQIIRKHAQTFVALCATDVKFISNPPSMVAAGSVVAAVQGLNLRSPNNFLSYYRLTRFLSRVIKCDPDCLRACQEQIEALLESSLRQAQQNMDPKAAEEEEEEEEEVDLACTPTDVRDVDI
T1 sequence (P00519 whole entry): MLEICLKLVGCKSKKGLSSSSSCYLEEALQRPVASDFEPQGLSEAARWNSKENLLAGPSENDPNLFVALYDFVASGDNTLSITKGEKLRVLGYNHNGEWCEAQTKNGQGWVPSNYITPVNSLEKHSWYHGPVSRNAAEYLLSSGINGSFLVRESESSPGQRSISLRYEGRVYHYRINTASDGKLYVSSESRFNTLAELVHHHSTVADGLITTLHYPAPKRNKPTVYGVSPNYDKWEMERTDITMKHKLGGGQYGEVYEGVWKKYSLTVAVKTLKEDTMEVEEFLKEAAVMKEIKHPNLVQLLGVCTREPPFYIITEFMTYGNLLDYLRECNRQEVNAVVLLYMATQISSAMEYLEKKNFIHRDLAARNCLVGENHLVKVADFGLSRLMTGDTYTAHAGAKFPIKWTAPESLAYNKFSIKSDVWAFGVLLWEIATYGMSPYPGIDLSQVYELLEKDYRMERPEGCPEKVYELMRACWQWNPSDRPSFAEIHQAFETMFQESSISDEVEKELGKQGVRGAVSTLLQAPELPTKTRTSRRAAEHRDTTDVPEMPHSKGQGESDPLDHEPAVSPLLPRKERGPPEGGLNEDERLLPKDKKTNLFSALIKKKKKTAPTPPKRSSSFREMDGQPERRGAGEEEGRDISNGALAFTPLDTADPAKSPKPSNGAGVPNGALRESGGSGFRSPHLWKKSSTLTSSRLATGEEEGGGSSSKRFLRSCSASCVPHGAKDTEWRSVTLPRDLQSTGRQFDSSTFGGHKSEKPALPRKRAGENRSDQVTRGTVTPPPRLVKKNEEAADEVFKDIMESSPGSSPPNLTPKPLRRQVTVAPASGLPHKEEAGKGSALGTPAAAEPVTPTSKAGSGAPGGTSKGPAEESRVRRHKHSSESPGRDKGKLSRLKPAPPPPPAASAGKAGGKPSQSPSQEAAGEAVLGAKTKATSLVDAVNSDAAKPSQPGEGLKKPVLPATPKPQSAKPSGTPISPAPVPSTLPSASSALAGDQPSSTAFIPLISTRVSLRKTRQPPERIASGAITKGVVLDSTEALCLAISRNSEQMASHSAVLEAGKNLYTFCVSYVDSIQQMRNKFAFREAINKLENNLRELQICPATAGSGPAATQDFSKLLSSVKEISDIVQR

Row | Compound | residual kinase activity (ABL1; 0.03 µM) | residual kinase activity (ABL1; 0.3 µM) | residual kinase activity (CDK6/CycD1; 0.03 µM) | residual kinase activity (CDK6/CycD1; 0.3 µM) | residual kinase activity (EPHB2; 0.03 µM) | residual kinase activity (EPHB2; 0.3 µM) | residual kinase activity (HIPK4; 0.03 µM) | residual kinase activity (HIPK4; 0.3 µM) | residual kinase activity (TYRO3; 0.03 µM) | residual kinase activity (TYRO3; 0.3 µM) | residual kinase activity (ABL1; 3 µM) | residual kinase activity (CDK6/CycD1; 3 µM) | residual kinase activity (EPHB2; 3 µM) | residual kinase activity (HIPK4; 3 µM) | residual kinase activity (TYRO3; 3 µM)
1 | COc1ccnc2[nH]cc(-c3cc(N)nc(N)c3)c12 [meriolin 16] | 103 % of control | 99 % of control | 93 % of control | 51 % of control | 97 % of control | 95 % of control | 74 % of control | 24 % of control | 104 % of control | 89 % of control | – | – | – | – | –
2 | c1ccc(CNc2cc(-c3c[nH]c4ncccc34)ccn2)cc1 [meriolin 36] | – | 80 % of control | – | 2 % of control | – | 85 % of control | – | 27 % of control | – | 94 % of control | 26 % of control | 1 % of control | 47 % of control | 2 % of control | 64 % of control
